Patent publication US6338963B1, “Use of carbon monoxide dependent guanylyl cyclase modifiers to stimulate neuritogenesis” (NeoTherapeutics, Inc., priority 1994, dated 2002)

Columns and labels:
rat striatum = assay: MRI of rat striatum injected with NMDA; format: in vivo
Procedure: T-2 weighted MRI photos of transverse brain 3-mm thick slices were performed (TR/TE=7400/115 ms; matrix 483×1024; FLV 250). Magnetic resonance images were acquired using 1.5 T scanner (Vision, Siemens-Erlangen). […] All animals survived the surgery and continued to receive treatment for an additional three days, at which time they were sacrificed and tissues were collected as described above.

CNTF = assay: Summary of effects on growth factor mRNA and protein (Table R): CNTF; design: key: ± = mRNA; + = protein; nt = not tested
Text: The constellation of effects of AIT-082 on production of mRNA encoding growth factors and on production of growth factor proteins is shown in Table R. The results summarized in […] show both transcriptional and translational effects on growth factors that are in the categories of neurotrophins, pleiotrophins, members of the S100 family of EF hand calcium binding proteins, and members of the TGFβ superfamily. As indicated, effects have been shown at both the mRNA (transcriptional) and protein (translational) levels.

GDNF = assay: Two-site ELISA of growth factor protein in rat brain and spinal cord: GDNF; format: in vivo, F344 rats
Procedure: Adult female F344 rats were given either AIT-082 (doses: 30 mg/kg/day or a higher dose of 30 mg/ml (˜3,000 mg/kg/day); n=6 rats per group) in their drinking water, or water alone, as a vehicle for control. The duration of the study was seven days, at which time the rats were anesthesized and perfused with ice-cold saline. The brains of the rats were rapidly removed. The brains were placed on a chilled glass plate and dissected into the following regions: basal forebrain, frontal cortex, parietal cortex, cerebellum, spinal cord, and hippocampal formation. Tissues were stored at −70° C. until assayed in a specific two-site ELISA for either NGF, BDNF, NT-3, or GNDF.
The results are shown in FIGS. 45 (BDNF), 46 (NT-3), 47 (GDNF) and 48 (NGF). For the results shown in FIGS. 45-48, animals were given only water (VEH, n=6) or water with AIT-082 at either 30 mg/kg/day (n=6) or 30 mg/ml (n=6) for seven days. The levels of each growth factor were determined in the frontal cortex (F. Cor.), parietal cortex (P.Cor.), hippocampal formation (Hipp.), basal forebrain (B.F.), cerebellum (Cer.), or spinal cord (Cord) using a specific two-site ELISA for each growth factor.
Adult female rats were given AIT-082 (30 mg/kg/day) in their drinking water or drinking water alone (n=6 for each group) for seven days prior to receiving a bilateral fimbria fornix transection (FFT).
The results are shown in FIGS. 49 (BDNF), 50 (NT-3), 51 (GDNF) and 52 (NGF). […] Levels of the growth factor were determined in frontal cortex (F.Cor.), parietal cortex (P.Cor.), hippocampal formation (Hipp.), basal forebrain (B.F.), cerebellum (Cer.), or spinal cord (Cord) using a specific two-site ELISA for each growth factor. […]
Results are shown in FIGS. 53 (BDNF), 54 (NT3), 55 (GDNF), and 56 (NGF). […] Levels of each growth factor were determined in frontal cortex (F.Cor.), parietal cortex (P. Cor.), hippocampal formation (Hipp.), basal forebrain (B.F.), cerebellum (Cer.) or spinal cord (Cord) using a specific two-site ELISA.

Swiss Webster mice = assay: T-maze discrimination learning and reversal; format: in vivo
Text: Subjects were also trained in the same T-maze used for the win-shift model discussed above. As in the win-shift method, subjects were shaped and then given a single reference run in which reward was available in both goal boxes. The subject was only allowed to consume the milk reward in the goal box selected. On the next run, the reward and thus the correct response was in the same goal box selected for the reference run and was not alternated. The subject was required to learn that there was no shift in the goal box for the correct response. The subjects were given 10 trials per day and continued until the subject had at least 8 out of 10 correct responses on two consecutive days. The number of days to reach this criteria of performance was recorded. After the subject reached criteria, the goal box for the correct response was reversed. The number of days taken to reach criteria on reversal was recorded.

neocortical astrocytes = assay: NGF-like immunoreactivity in astrocyte culture medium (ELISA); format: cell-based, mouse; conditions: astrocytes incubated with different concentrations
Procedure: Astrocytes appear to proliferate in response to extracellular guanosine or guanosine triphosphate (GTP). GTP or guanosine may also stimulate the release of trophic factors from cultures of neocortical astrocytes from neonatal mouse brains. Astrocytes were incubated with different concentrations of guanosine or GTP respectively. Neurotrophin imunoreactivity in the culture medium from treated cells was then measured by ELISA.
Briefly, 96 well Falcon plates (Fisher) were coated with […] of sheep mono-specific anti-NGF IgG (affinity column purified) contained in 0.1M sodium carbonate buffer pH 9.6. After an overnight incubation at 4° C. blocking solution (PBS with 10% goat serum) was added to remove excess antibody. After a four hour incubation at room temperature the plates were washed three times with PBS containing 0.05% Tween 20. The conditioned media and standard 2.5S HPLC purified NGF were added and incubated overnight. The next day plates were washed 3 times with PBS-0.05% Tween 20. The secondary antibody, rabbit mono-specific anti-NGF IgG conjugated with β-galactosidase (Pierce-SPDP method) (1:500 dilution) was added. The plates were incubated overnight at 4° C. The next day the plates were washed 3 times with PBS-0.05% Tween 20. […]
The ELISA assay detected neurotrophins NGF and NT-3 with ahnost equal affinity and BDNF with 100 times less affinity. […]

**Q.** What does the source list for `O=C(CCn1cnc2c(=O)[nH]cnc21)Nc1ccc(C(=O)O)cc1` [AIT-082, N-4-carboxyphenyl-3-(6-oxohydropurin-9-yl)propanamide]?
**A.** MRI brightness of the lesion (rat striatum; AIT locally co-injected with NMDA): disappeared; MRI brightness of the lesion (rat striatum; systemic (intraperitoneal) AIT-082 60 mg/kg): significantly reduced; CNTF, effect on mRNA/protein production (CNTF; Lesioned Spinal Cord): ±; CNTF, effect on mRNA/protein production (CNTF; Normal Spinal Cord): ±; GDNF protein levels (GDNF; FFT-lesioned rats, 30 mg/kg/day, basal forebrain): increased GDNF levels; GDNF protein levels (GDNF; aged rats, 30 mg/kg/day 30 days, parietal and frontal cortex): restored GDNF protein levels to those of young animals; GDNF protein levels (GDNF; intact adult rats, 3000 mg/kg/day, basal forebrain and spinal cord): increased GDNF levels; T-maze Learning, Learning (Swiss Webster mice; AIT-082 0.5 mg/kg): 3.0 days to reach criteria; T-maze Learning, Reversal (Swiss Webster mice; AIT-082 0.5 mg/kg): 3.78 days to reach criteria; T-maze Learning, Learning (Swiss Webster mice; AIT-082 30.0 mg/kg): 3.3 days to reach criteria; T-maze Learning, Reversal (Swiss Webster mice; AIT-082 30.0 mg/kg): 3.5 days to reach criteria

**Q.** For `Nc1nc2c(ncn2[C@@H]2O[C@H](CO)[C@@H](O)[C@H]2O)c(=O)[nH]1` [guanosine], which “NGF-like immunoreactivity in the culture medium” value (neocortical astrocytes) is on record?
**A.** increased the amount of NGF-like immunoreactivity
